Assay results: patent US11051515B2, “3-acyl-benzamides and their use as herbicides” (Bayer Aktiengesellschaft, priority 2017, dated 2021)

What was measured:
DIGSA [1] = test: Pre-emergence action against DIGSA; type: in vivo, Digitaria sanguinalis; conditions: dosage 320 g/ha, scored visually after 3 weeks vs untreated controls
Excerpt: Seeds of monocotyledonous and dicotyledonous weed plants and crop plants are laid out in sandy loam soil in wood-fiber pots and covered with soil. The compounds of the invention, formulated in the form of wettable powders (WP) or as emulsion concentrates (EC), are then applied to the surface of the covering soil in the form of an aqueous suspension or emulsion at a water application rate equating to […], with addition of 0.2% wetting agent. After the treatment, the pots are placed in a greenhouse and kept under good growth conditions for the trial plants. The damage to the test plants is scored visually after a test period of 3 weeks by comparison with untreated controls (herbicidal activity in percent (%): 100% activity=the plants have died, 0% activity=like control plants).

ECHCG [2] = test: Pre-emergence action against ECHCG; type: in vivo, Echinochloa crus-galli; conditions: pre-emergence, dosage 320 g/ha, scored visually after 3 weeks vs untreated controls
Method in brief: (§1)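 Seeds sown in sandy loam in wood-fiber pots and covered with soil. Greenhouse growth; visual damage scored after 3 weeks versus untreated controls (100% = dead, 0% = like control).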

SETVI [3] = test: Pre-emergence action against SETVI; type: in vivo, Setaria viridis; conditions: pre-emergence, dosage 320 g/ha, scored visually after 3 weeks vs untreated controls
Method in brief: as §1

ABUTH [4] = test: Pre-emergence action against ABUTH; type: in vivo, Abutilon theophrasti; conditions: pre-emergence, dosage 320 g/ha, scored visually after 3 weeks vs untreated controls
Method in brief: as §1

AMARE [5] = test: Pre-emergence action against AMARE; type: in vivo, Amaranthus retroflexus; conditions: pre-emergence, dosage 320 g/ha, scored visually after 3 weeks vs untreated controls
Method in brief: as §1

MATIN [6] = test: Pre-emergence action against MATIN; type: in vivo, Matricaria inodora; conditions: Dosage 320 g/ha, pre-emergence
Method in brief: as §1

STEME [7] = test: Pre-emergence action against STEME; type: in vivo, Stellaria media; conditions: Dosage 320 g/ha, pre-emergence
Method in brief: as §1

VIOTR [8] = test: Pre-emergence action against VIOTR; type: in vivo, Viola tricolor; conditions: Dosage 320 g/ha, pre-emergence
Method in brief: as §1

VERPE [9] = test: Pre-emergence action against VERPE; type: in vivo, Veronica persica; conditions: Dosage 320 g/ha, pre-emergence
Method in brief: as §1

DIGSA [10] = test: Post-emergence action against DIGSA; type: in vivo, Digitaria sanguinalis; conditions: dosage 80 g/ha, visual assessment about 3 weeks after treatment vs untreated controls
Method: Seeds of monocotyledonous and dicotyledonous weed and crop plants are laid out in sandy loam soil in wood-fiber pots, covered with soil and cultivated in a greenhouse under good growth conditions. 2 to 3 weeks after sowing, the test plants are treated at the one-leaf stage. The compounds of the invention, formulated in the form of wettable powders (WP) or as emulsion concentrates (EC), are then sprayed onto the green parts of the plants in the form of an aqueous suspension or emulsion at a water application rate equating to […], with addition of 0.2% wetting agent. After the test plants have been left to stand in the greenhouse under optimal growth conditions for about 3 weeks, the action of the preparations is assessed visually in comparison to untreated controls (herbicidal action in percent (%): 100% activity=the plants have died, 0% activity=like control plants). […] At the same time, inventive compounds leave Gramineae crops such as barley, wheat, rye, millet/Sorghum, corn or rice virtually undamaged when applied post-emergence, even at high active ingredient dosages. In addition, some substances are also harmless to dicotyledonous crops such as soya, cotton, oilseed rape, sugar beet or potatoes. Some of the compounds according to the invention have high selectivity and are therefore suitable for controlling unwanted vegetation in agricultural crops by the post-emergence method. The data of Tables B18 to B34 below illustrate, in an exemplary manner, the […] herbicidal action of the compounds according to the invention, the herbicidal activity being stated in percent.

ABUTH [11] = test: Post-emergence action against ABUTH; type: in vivo, Abutilon theophrasti; conditions: post-emergence, dosage 80 g/ha, visual assessment about 3 weeks after treatment vs untreated controls
Method in brief: (§2)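 Weeds grown in sandy loam in greenhouse, treated at one-leaf stage (2–3 weeks after sowing) with WP or EC formulations sprayed as aqueous suspension/emulsion at 600 to […] water with 0.2% wetting agent. Visual rating after about 3 weeks versus untreated controls, as % herbicidal action (100% = plants dead, 0% = like control).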

AMARE [12] = test: Post-emergence action against AMARE; type: in vivo, Amaranthus retroflexus; conditions: post-emergence, dosage 80 g/ha, visual assessment about 3 weeks after treatment vs untreated controls
Method in brief: as §2

MATIN [13] = test: Post-emergence action against MATIN; type: in vivo, Matricaria inodora; conditions: post-emergence, dosage 80 g/ha, visual assessment about 3 weeks after treatment vs untreated controls
Method in brief: as §2

PHBPU [14] = test: Post-emergence action against PHBPU; type: in vivo, Pharbitis purpurea; conditions: post-emergence, dosage 80 g/ha
Method in brief: as §2

STEME [15] = test: Post-emergence action against STEME; type: in vivo, Stellaria media; conditions: post-emergence, dosage 80 g/ha
Method in brief: as §2

VIOTR [16] = test: Post-emergence action against VIOTR; type: in vivo, Viola tricolor; conditions: post-emergence, dosage 80 g/ha
Method in brief: as §2

VERPE [17] = test: Post-emergence action against VERPE; type: in vivo, Veronica persica; conditions: dosage 80 g/ha
Method in brief: as §2

ALOMY [18] = test: Pre-emergence action against ALOMY; type: in vivo, Alopecurus myosuroides; conditions: dosage 320 g/ha; pre-emergence; scored visually after 3 weeks vs untreated controls; 100% = plants have died, 0% = like control plants
Method in brief: as §1

ECHCG [19] = test: Post-emergence action against ECHCG; type: in vivo, Echinochloa crus-galli; conditions: post-emergence, dosage 80 g/ha, visual assessment about 3 weeks after treatment vs untreated controls
Method in brief: as §2

POLCO = test: Post-emergence action against POLCO; type: in vivo, Polygonum convolvulus; conditions: post-emergence, dosage 80 g/ha
Method in brief: as §2

PHBPU [20] = test: Pre-emergence action against PHBPU; type: in vivo, Pharbitis purpurea; conditions: Dosage 320 g/ha, pre-emergence
Method in brief: as §1

SETVI [21] = test: Post-emergence action against SETVI; type: in vivo, Setaria viridis; conditions: post-emergence, dosage 80 g/ha, visual assessment about 3 weeks after treatment vs untreated controls
Method in brief: as §2

AVEFA = test: Pre-emergence action against AVEFA; type: in vivo, Avena fatua; conditions: dosage 320 g/ha, scored visually after 3 weeks vs untreated controls
Method in brief: as §1

ALOMY [22] = test: Post-emergence action against ALOMY; type: in vivo, Alopecurus myosuroides; conditions: Dosage 80 g/ha, post-emergence
Method in brief: as §2

Row | SMILES | Pre-emergence action against DIGSA (herbicidal activity) (DIGSA [1]) | Pre-emergence action against ECHCG (herbicidal activity) (ECHCG [2]) | SETVI (Table B8, pre-emergence herbicidal activity) (SETVI [3]) | Pre-emergence action against ABUTH (herbicidal activity) (ABUTH [4]) | Pre-emergence action against AMARE (herbicidal activity) (AMARE [5]) | Pre-emergence action against MATIN (MATIN [6]) | Pre-emergence action against STEME (STEME [7]) | Pre-emergence action against VIOTR (VIOTR [8]) | Pre-emergence action against VERPE (VERPE [9]) | Post-emergence action against DIGSA (herbicidal action in percent) (DIGSA [10]) | Post-emergence action against ABUTH (herbicidal action in percent) (ABUTH [11]) | Post-emergence action against AMARE (herbicidal action in percent) (AMARE [12]) | Post-emergence action against MATIN (herbicidal action in percent) (MATIN [13]) | Post-emergence action against PHBPU (PHBPU [14]) | Post-emergence action against STEME (STEME [15]) | Post-emergence action against VIOTR (VIOTR [16]) | Post-emergence action against VERPE (VERPE [17]) | Pre-emergence action against ALOMY (herbicidal activity in percent) (ALOMY [18]) | Post-emergence action against ECHCG (herbicidal action in percent) (ECHCG [19]) | Post-emergence action against POLCO (POLCO) | further results
1 | Cn1nnnc1NC(=O)c1ccc(C(F)(F)F)c(C(=O)C2CCCC2)c1Cl [1-154] | 100% | 100% | 80% | 100% | 100% | 100% | 100% | 100% | 90% | 80% | 90% | 90% | 80% | 80 | 90 | 80 | 80 | – | – | – | –
2 | CCn1nnnc1NC(=O)c1ccc(C(F)(F)F)c(C(=O)C2CCC2)c1Cl [2-153] | 100% | – | 100% | 100% | 100% | 100% | 90% | 100% | 100% | 100% | 100% | 90% | 100% | 80 | 100 | 90 | – | 90% | 90% | 80 | –
3 | CCn1nnnc1NC(=O)c1ccc(C(F)(F)F)c(C(=O)C(F)F)c1Cl [2-163] | 90% | 90% | 100% | 100% | 100% | 100% | 100% | 100% | – | 100% | 90% | 100% | 90% | 90 | 100 | 100 | – | – | 90% | – | Pre-emergence action against PHBPU (PHBPU [20]): 100%; Post-emergence action against SETVI (herbicidal action in percent) (SETVI [21]): 80%
4 | CCn1nnnc1NC(=O)c1ccc(C(F)(F)F)c(C(=O)C2CCC2)c1SC [2-284] | 100% | 100% | 100% | 100% | 100% | 100% | 100% | 100% | 100% | 90% | 100% | 100% | 90% | 90 | 100 | 80 | 80 | 90% | 90% | 80 | Pre-emergence action against AVEFA (herbicidal activity) (AVEFA): 90%; Pre-emergence action against PHBPU (PHBPU [20]): 80%; Post-emergence action against SETVI (herbicidal action in percent) (SETVI [21]): 100%
5 | CCCC(=O)c1c(C(F)(F)F)ccc(C(=O)Nc2nnnn2CCC)c1C [3-16] | 90% | 90% | 100% | 100% | 100% | 100% | 100% | 90% | 100% | 90% | 100% | 100% | 90% | 90 | 90 | 80 | 80 | 80% | 90% | 90 | Pre-emergence action against AVEFA (herbicidal activity) (AVEFA): 80%; Pre-emergence action against PHBPU (PHBPU [20]): 80%; Post-emergence action against ALOMY (ALOMY [22]): 80%; Post-emergence action against SETVI (herbicidal action in percent) (SETVI [21]): 90%
6 | CCCn1nnnc1NC(=O)c1ccc(C(F)(F)F)c(C(=O)C2CCC2)c1Cl [3-153] | 100% | – | 80% | 100% | 100% | 90% | – | 100% | – | 80% | 100% | 100% | 100% | – | 100 | – | – | – | – | – | –
7 | CCCn1nnnc1NC(=O)c1ccc(C(F)(F)F)c(C(=O)C2CCC2)c1SC [3-280] | 100% | 80% | 100% | 100% | 100% | 90% | 100% | 100% | – | 80% | 100% | 100% | 90% | 80 | 100 | 80 | – | – | 80% | – | –
